GI50 data for one compound are collected here from publication PMC9817970 (Cancers, 2022).

Each structure is given as a SMILES string.

This assay concerns c-KIT D816V Ba/F3 cells. The assay can be described thus: Anti-proliferative activity on Ba/F3 cells. The assay is classed as cell-based. Particulars: Mus musculus, BaF3.

Compound `Cc1ccc(NC(=O)c2ccc(CN3CCN(C)CC3)c(C(F)(F)F)c2)cc1-c1cnc2sc(N)nc2c1` [6r] yielded a GI50 of 1110 ± 470 nM.
